Assays:
PKC-ε = biological target: T1, PKC-ε (Homo sapiens, UniProt Q02156); test: Compassionate use study: PKC-ε level in blood; assay type: in vivo; conditions: advanced AD patient blood, weekly dose of 25 μg/m^2, three consecutive weeks
T1 construct: from tissue; host or cells: blood of a human advanced Alzheimer's disease patient
T1 sequence (Q02156 1-737): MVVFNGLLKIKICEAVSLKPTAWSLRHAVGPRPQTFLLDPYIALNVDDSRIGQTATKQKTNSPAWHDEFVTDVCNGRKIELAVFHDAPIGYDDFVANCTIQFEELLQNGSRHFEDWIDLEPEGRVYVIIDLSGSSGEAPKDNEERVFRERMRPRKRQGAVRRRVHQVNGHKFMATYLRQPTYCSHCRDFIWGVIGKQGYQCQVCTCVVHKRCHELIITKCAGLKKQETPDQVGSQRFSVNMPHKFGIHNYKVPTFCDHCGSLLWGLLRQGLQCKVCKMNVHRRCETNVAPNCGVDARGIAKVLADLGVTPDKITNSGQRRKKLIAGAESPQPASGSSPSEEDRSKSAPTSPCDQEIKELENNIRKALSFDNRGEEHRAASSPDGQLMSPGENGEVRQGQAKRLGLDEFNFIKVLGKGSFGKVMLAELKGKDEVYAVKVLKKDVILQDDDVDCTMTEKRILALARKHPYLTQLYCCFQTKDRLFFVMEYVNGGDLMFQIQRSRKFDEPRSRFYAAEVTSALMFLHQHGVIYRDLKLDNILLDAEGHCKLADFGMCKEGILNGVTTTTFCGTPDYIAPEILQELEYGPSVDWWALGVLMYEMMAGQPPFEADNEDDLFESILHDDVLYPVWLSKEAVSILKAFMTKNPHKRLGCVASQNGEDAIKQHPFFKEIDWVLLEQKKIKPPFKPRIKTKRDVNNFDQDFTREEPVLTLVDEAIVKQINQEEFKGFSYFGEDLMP
Protocol: (§1) FIG. 1 illustrates, inter alia, the level of PKCε in the blood of a human subject receiving 25 μg/m^2 of bryostatin as a single weekly dose for three consecutive weeks followed by cessation of dosing for one week and then two additional weeks of dosing at 25 μg/m^2.
(§2) FIG. 1 illustrates early results of a compassionate use (CU) study involving human advanced AD patients. […] The administration comprised three consecutive weeks of dosing followed by cessation for one week and then two additional weeks of dosing. Standard psychometric tests were used to measure cognitive functions and behaviors. The study also evaluated the relationship between the level of bryostatin's target, PKC epsilon, in the blood and the cognitive measurements.
(§3) Observed improvements included restored speech and word recognition, restored swallowing, lowered or prevented hallucinations, and improved complex motor functions. […] For example, the observed behavioral improvements included restoration of speech and word recognition, restoration of swallowing, disappearance of hallucinations, return of complex motor activity, including swimming, billiards, conversational interactions, and orientation in time and space.

advanced AD patients = test: Compassionate use study: cognitive function and behavior (MMSE, ADL-siv); assay type: in vivo, human
Protocol: as §1, §2, §3
The decline closely tracked the decline in PCK-ε levels, as illustrated in FIG. 1. The observed decline was due to a well-known phenomenon that follows PKC activation called “downregulation”. Sustained clinical improvements in these patients with advanced AD were mitigated by the downregulation of the bryostatin target, PKC-ε. From these preliminary observations the inventors hypothesized that an intermittent dosing regimen of bryostatin was more suitable for maintaining cognitive benefits in AD patients.

PSD-95 = test: Brain PSD-95 by Western Blot after i.v. bryostatin dosing regimens; assay type: in vivo, mice; conditions: for PSD-95 (% of Control): mouse brain, 1 h after last dose
Protocol: The dose of bryostatin administered is reflected by the number above each bar, while the number within each bar indicates the number of consecutive weeks mice receive a single weekly dose of bryostatin. Control mice were injected with vehicle. PSD-95 was measured in mouse brain by Western Blot 1 h after the last dose. (Mean±SEM, n=3 except Cage 23 n=2, 2-tailed t-test).
Mouse studies were performed using bryostatin-i in accordance with the protocol described below. The following metrics were used to evaluate dosing regimens: induction of brain postsynaptic anchoring protein PSD-95, upregulation of BDNF levels in brain, minimal downregulation of PKC-ε levels, and elevation of brain and plasma concentrations of bryostatin. Groups of 2-3 mice were formed and housed in an approved research animal facility. Water was give ad libitum. A first study involved three groups of mice with animals in each group dosed weekly for 1, 2, 3, or 6 consecutive weeks. Each group had its own control group containing the same number of mice. In this study, mice in the first, second and third groups received an intravenous (i.v.) injection of 10 μg/m^2, 15 μg/m^2, and 25 μg/m^2 dose of bryostatin respectively. For each dose, mice in that group received a single injection of bryostatin weekly for predetermined number of consecutive weeks. Following dosing, mice were sacrificed and the blood and brain of each animal was collected for further analysis.
Cells were harvested in homogenizing buffer containing 10 mM Tris-Cl (pH 7.4), 1 mM PMSF (phenylmethylsulfonyl fluoride), 1 mM EGTA, 1 mM EDTA. 50 mM NaF, and 20 μM leupeptin and were lysed by sonication. The homogenate was centrifuged at 100,000×g for 15 min at 4° C. to obtain the cytosolic fraction (supernatant) and membrane (pellet). The pellet was resuspended in the homogenizing buffer by sonication. Protein concentration was measured using the Coomassie Plus (Bradford) Protein Assay kit (Pierce, USA). Following quantification, 20 μg of protein from each sample was subjected to SDS-PAGE analysis in 4-20% gradient Tris-Glycine gel (Invitrogen, USA). The separated protein was then transferred to nitrocellulose membrane. The membrane was blocked with BSA at room temperature for 15 min and was incubated with primary antibody over night at 4° C. After the incubation, it was washed three times with TBS-T (Tris Buffered saline-Tween 20) and further incubated with alkaline phosphatase conjugated secondary antibody (Jackson Immunoresearch Laboratories. USA) at 1:10,000 dilution for 45 min. The membrane was finally washed three times with TBS-T and developed using the 1-step NBT-BCIP substrate (Pierce, USA). Western Blot was imaged in the Image Quant RT-ECL (GE Life Sciences, Piscataway, N.J.) and densitometric quantification was performed using the IMAL software (Blanchette Rockefeller Neurosciences institute, Morgantown, W. Va.). For translocation assays, PKC activation was represented as the percentage of total protein in the membrane (membrane/cytosol+membrane).
C57B/6 male mice weighing between 19-21 grams were obtained from Charles River and housed in cages, 1 mouse/cage in a vivarium at the Blanchette Rockefeller Neurosciences institute. Animals were allowed access to water ad libitum.
In these studies, bryostatin was administered intravenously (i.v.) by injection into the tail vein of a mouse. Stock solutions of bryostatin were prepared in dimethyl sulfoxide (DMSO). Prior to administration to a mouse, the stock DMSO solution of bryostatin was diluted to a predetermined concentration by dilution with phosphate buffered saline/saline (PBS/saline).
Three different dosing regimens (injection schedules) were compared. The dosing regimens tested were weekly dosing, dosing every other week (alternating weeks), and spaced or intermittent dosing. […]

[1] = advanced AD patients, weekly dose of 25 μg/m^2, three consecutive weeks

CCC/C=C/C=C/C(=O)O[C@H]1/C(=C/C(=O)OC)C[C@H]2C[C@H]([C@@H](C)O)OC(=O)C[C@H](O)C[C@@H]3C[C@H](OC(C)=O)C(C)(C)[C@](O)(C[C@@H]4C/C(=C/C(=O)OC)C[C@H](/C=C/C(C)(C)[C@]1(O)O2)O4)O3 [Bryostatin-1]
total PKC-ε levels (PKC-ε): increased
maintenance of cognitive benefits (advanced AD patients; additional bryostatin dosing in weeks 5, 6 and 8-13): failed to maintain the observed cognitive benefits
Activities of Daily Living-Severe Impairment Version (ADL-siv) (advanced AD patients; [1]): improvements
Mini-Mental State Examination (MMSE) score (advanced AD patients; [1]): improvements
amounts of PSD-95 (PSD-95; mice, 25 μg/m^2 i.v. once per week, three weeks): higher amounts
PSD-95 (% of Control) (PSD-95; cage 7: 10 μg/m^2 i.v. once weekly, 6 weeks): 108.176 % of Control
PSD-95 (% of Control) (PSD-95; cage 17: 15 μg/m^2 i.v. once weekly, 3 weeks): 126.969 % of Control
PSD-95 (% of Control) (PSD-95; cage 21: 25 μg/m^2 i.v., 1 week): 99.453 % of Control
PSD-95 (% of Control) (PSD-95; cage 23: 25 μg/m^2 i.v. once weekly, 2 weeks): 107.570 % of Control
PSD-95 (% of Control) (PSD-95; cage 25: 25 μg/m^2 i.v. once weekly, 3 weeks): 171.203 % of Control

Reference: US11173140B2, “Dosing regimens of PKC activators” (COGNITIVE RESEARCH ENTERPRISES, INC., priority 2015, dated 2021)
